Test results taken from US20050130989A1, “N-arylheteroaromatic products compositions containing them and use thereof” (Aventis Pharma S. A., priority 2003, published 2005).
Read-outs that look alike come from different tables or passages of the source.

Tests used:
tubulin = target: T1, tubulin (Sus scrofa, UniProt P02550+P02554); test: Evaluation of the inhibition of tubulin polymerization (turbidimetry); type: biochemical, pig; settings: tubulin 10 μm (1 mg/ml), 37° C., turbidity at 350 nm; concentration that inhibits the rate of polymerization by 50%; read-out: Inhibition of tubulin polymerization IC 50 (μm)
T1 construct: Tubulin is purified from pig brain according to published methods; from tissue; host or cells: pig brain
Outline: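 Pig brain tubulin (>95% pure), 10 μm in MES pH 6.8/30% glycerol buffer plus 1 mM GTP and 6 mM MgCl2, with compound at 0.5–10 μm added before polymerization. Polymerization triggered by shift from 6° C to 37° C, followed by turbidity at 350 nm; IC50 is 50% inhibition of polymerization rate.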

HCT116 cells = test: Inhibition of proliferation of the human colon tumor line HCT116 ([14C]-thymidine incorporation); type: cell-based; settings: Homo sapiens, read-out: Inhibition of HCT116 proliferation IC 50 (μm)
Procedure: The proliferation of HCT116 cells is evaluated by measuring the incorporation of [^14C]-thymidine in the following manner. The HCT 116 cells (obtained from the ATCC) are cultured in a DMEM medium (Gibco) containing 10% fetal calf serum and antibiotics (1% penicillin, 1% streptomycin). To perform the proliferation test, the cells are inoculated in cytostar 96-well microplates (Amersham), at a rate of 5000 cells per well. [^14C]-thymidine (0.1 μCi/well) and the products to be evaluated are then added. Variable concentrations of products up to 10 μm are used; the DMSO (solvent used to dissolve the products) should not exceed 0.5% in the medium. 48 hours after incubation at 37° C., the radioactivity incorporated into the cells is measured by counting the plate in a TRI-LUX counter (Wallac). The IC50 is defined as the concentration of product that reduces the radioactivity by 50% compared with an untreated control. A product whose IC50 is less than 3 μm is considered cytotoxic.

[1] = HCT-116, 48 h, 48 hours at 37° C.

T1 sequence (P02550 whole entry): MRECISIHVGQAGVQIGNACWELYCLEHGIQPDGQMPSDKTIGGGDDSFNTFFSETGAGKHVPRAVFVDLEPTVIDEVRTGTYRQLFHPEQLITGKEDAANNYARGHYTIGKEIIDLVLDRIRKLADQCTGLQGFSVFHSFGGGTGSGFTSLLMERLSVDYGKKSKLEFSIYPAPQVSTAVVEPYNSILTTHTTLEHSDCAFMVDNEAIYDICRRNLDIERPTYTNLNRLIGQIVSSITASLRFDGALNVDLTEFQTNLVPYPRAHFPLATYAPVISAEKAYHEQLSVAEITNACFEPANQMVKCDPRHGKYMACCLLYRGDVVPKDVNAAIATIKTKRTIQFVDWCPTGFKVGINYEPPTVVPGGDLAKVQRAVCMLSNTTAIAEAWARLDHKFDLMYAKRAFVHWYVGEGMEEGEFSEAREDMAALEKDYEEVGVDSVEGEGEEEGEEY
T1 sequence (P02554 whole entry): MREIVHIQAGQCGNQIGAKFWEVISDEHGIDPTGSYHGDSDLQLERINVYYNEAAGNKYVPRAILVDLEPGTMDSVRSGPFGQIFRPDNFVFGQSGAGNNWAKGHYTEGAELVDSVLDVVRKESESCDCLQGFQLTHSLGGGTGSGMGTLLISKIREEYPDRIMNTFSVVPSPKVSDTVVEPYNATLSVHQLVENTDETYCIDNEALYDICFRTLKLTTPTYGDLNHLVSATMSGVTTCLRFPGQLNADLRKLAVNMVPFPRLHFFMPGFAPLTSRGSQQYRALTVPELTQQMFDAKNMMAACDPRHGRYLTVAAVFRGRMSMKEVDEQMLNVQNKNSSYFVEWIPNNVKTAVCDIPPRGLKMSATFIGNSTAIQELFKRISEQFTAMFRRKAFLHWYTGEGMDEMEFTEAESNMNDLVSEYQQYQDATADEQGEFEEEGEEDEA

SMILES: COc1cccc(-n2nc(C)cc2C(=O)N2CCN(c3cc(Cl)ccc3OC)CC2)c1 [3/5]
- IC50 (tubulin): 3000 nM
- IC50 (HCT116 cells; [1]): 238 nM

SMILES: Cc1cc(C(=O)N2CCN(c3ccsc3)CC2)n(-c2ccccc2)n1 [Example E104, (5-Methyl-2-phenyl-2H-pyrazol-3-yl)[4-(thiophen-3-yl)piperazin-1-yl]-methanone]
- IC50 (tubulin): 8000 nM
- IC50 (HCT116 cells; [1]): 839 nM

SMILES: COc1cccc(-n2nc(C)cc2C(=O)N2CCN(c3cccc(Cl)c3)CC2)c1 [3/35]
- IC50 (tubulin): 5000 nM
- IC50 (HCT116 cells; [1]): 284 nM

SMILES: COc1cccc(N2CCN(C(=O)c3cc(C)nn3-c3cccc(OC)c3)CC2)c1 [3/82]
- IC50 (tubulin): 1200 nM
- IC50 (HCT116 cells; [1]): 8.3 nM

SMILES: Cc1cc(C(=O)N2CCN(c3cccc(S(C)(=O)=O)c3)CC2)n(-c2ccccc2)n1 [Example E26, [4-(3-Methanesulfonylphenyl)piperazin-1-yl](5-methyl-2-phenyl-2H-pyrazol-3-yl)methanone]
- IC50 (tubulin): 6400 nM
- IC50 (HCT116 cells; [1]): 135 nM

SMILES: Cc1cc(C(=O)N2CCN(c3ccccc3C(F)(F)F)CC2)n(-c2ccccc2)n1 [3/84]
- IC50 (tubulin): 5500 nM
- IC50 (HCT116 cells; [1]): 176 nM

SMILES: Cc1cccc(-n2nc(C)cc2C(=O)N2CCN(c3ccc(F)cc3)CC2)c1 [3/47]
- IC50 (tubulin): 8000 nM
- IC50 (HCT116 cells; [1]): 312 nM

SMILES: Cc1cc(C(=O)N2CCN(c3ccc(F)cc3)CC2)n(-c2cccc(Cl)c2)n1 [3/24]
- IC50 (tubulin): 5000 nM
- IC50 (HCT116 cells; [1]): 239 nM

SMILES: COc1cc(OC)cc(N2CCN(C(=O)c3cc(N4CCCC4)nn3-c3ccccc3)CC2)c1 [Example E93, [4-(3,5-Dimethoxyphenyl)piperazin-1-yl][2-phenyl-5-(pyrrolidin-1-yl)-2H-pyrazol-3-yl]methanone]
- IC50 (tubulin): 2020 nM
- IC50 (HCT116 cells; [1]): 6.3 nM

SMILES: Cc1cccc(N2CCN(C(=O)c3cc(C)nn3-c3ccccc3)CC2)c1 [3/11]
- IC50 (tubulin): 3000 nM
- IC50 (HCT116 cells; [1]): 36 nM

SMILES: COc1ccccc1N1CCN(C(=O)c2cc(C)nn2-c2cccc(C)c2)CC1 [3/45]
- IC50 (tubulin): 3000 nM
- IC50 (HCT116 cells; [1]): 73 nM

SMILES: Cc1cc(CN2CCN(c3cccc(Cl)c3)CC2)n(-c2ccccc2)n1 [Example E14, [4-(3-chlorophenyl)piperazin-1-yl](5-methyl-2-phenyl-2H-pyrazol-3-yl)methane]
- IC50 (tubulin): 12000 nM
- IC50 (HCT116 cells; HCT-116, 48 hours at 37° C.): 3080 nM

SMILES: COc1cc(OC)cc(N2CCN(C(=O)c3cc(C)nn3-c3ccccc3)CC2)c1 [Example E20, [4-(3,5-Dimethoxyphenyl)piperazin-1-yl](5-methyl-2-phenyl-2H-pyrazol-3-yl)-methanone]
- IC50 (tubulin): 290 nM
- IC50 (HCT116 cells; [1]): 1.5 nM

SMILES: COc1cc(OC)cc(N2CCN(C(=O)c3cc(/C=N\O)nn3-c3ccccc3)CC2)c1 [Example E95, 5-[4-(3,5-Dimethoxyphenyl)piperazine-1-carbonyl]-1-phenyl-1H-pyrazole-3-carboxaldehyde oxime Z]
- IC50 (tubulin): 800 nM
- IC50 (HCT116 cells; [1]): 0.17 nM

SMILES: Cc1cccc(N2CCN(C(=O)c3cc(C)nn3-c3cccc(C)c3)CC2)c1 [3/50]
- IC50 (tubulin): 1500 nM
- IC50 (HCT116 cells; [1]): 6.1 nM

SMILES: Cc1cc(C(=O)N2CCN(c3ccc(Cl)c(Cl)c3)CC2)n(-c2cccc(F)c2)n1 [3/93]
- IC50 (tubulin): 1700 nM
- IC50 (HCT116 cells; [1]): 32 nM

SMILES: Cc1cc(C(=O)N2CCN(c3cccc(Cl)c3Cl)CC2)n(-c2ccc(F)cc2)n1 [3/119]
- IC50 (tubulin): 3100 nM
- IC50 (HCT116 cells; [1]): 562 nM

SMILES: CCc1ccccc1N1CCN(C(=O)c2cc(C)nn2-c2ccc(F)cc2)CC1 [3/104]
- IC50 (tubulin): 5000 nM
- IC50 (HCT116 cells; [1]): 285 nM

SMILES: COc1cc(OC)cc(N2CCN(C(=O)c3cc(NCc4ccccc4)nn3-c3ccccc3)CC2)c1 [Example E98, (5-Benzylamino-2-phenyl-2H-pyrazol-3-yl)[4-(3,5-dimethoxyphenyl)piperazin-1-yl]methanone]
- IC50 (tubulin): 1400 nM
- IC50 (HCT116 cells; [1]): 223 nM

SMILES: CCc1ccccc1N1CCN(C(=O)c2cc(C)nn2-c2cccc(C)c2)CC1 [3/29]
- IC50 (tubulin): 5000 nM
- IC50 (HCT116 cells; [1]): 452 nM

SMILES: Cc1cc(C(=O)N2CCN(c3ccc(Cl)cc3)CC2)n(-c2cccc(Cl)c2)n1 [3/69]
- IC50 (tubulin): 18000 nM
- IC50 (HCT116 cells; [1]): 347 nM

SMILES: Cc1cc(C(=O)N2CCN(c3ccc4c(c3)OCCO4)CC2)n(-c2ccccc2)n1 [3/14]
- IC50 (tubulin): 15000 nM
- IC50 (HCT116 cells; [1]): 352 nM

SMILES: O=C(c1ccnn1-c1ccccc1)N1CCN(c2cccc(Cl)c2)CC1 [Example 5, [4-(3-Chlorophenyl)piperazin-1-yl](2-phenyl-2H-pyrazol-3-yl)methanone]
- IC50 (tubulin): 1200 nM
- IC50 (HCT116 cells; [1]): 4.1 nM

SMILES: Cc1cc(C(=O)N2CCN(c3ccccc3C)CC2)n(-c2ccc(F)cc2)n1 [3/147]
- IC50 (tubulin): 7000 nM
- IC50 (HCT116 cells; [1]): 1290 nM

SMILES: Cc1cc(C(=O)N2CCN(c3ccccc3)CC2)n(-c2ccccn2)n1 [Example E21, (5-Methyl-2-pyrid-2-yl-2H-pyrazol-3-yl)(4-phenylpiperazin-1-yl)methanone]
- IC50 (tubulin): 9500 nM
- IC50 (HCT116 cells; [1]): 198 nM

SMILES: Cc1cc(C(=O)N2CCN(c3cccc(Cl)c3)CC2)n(-c2cnccn2)n1 [Example E36, [4-(3-Chlorophenyl)piperazin-1-yl](5-methyl-2-pyrazin-2-yl-2H-pyrazol-3-yl)-methanone]
- IC50 (tubulin): 20000 nM
- IC50 (HCT116 cells; [1]): 939 nM

SMILES: COc1cccc(-n2nc(C)cc2C(=O)N2CCN(c3cccc(C)c3C)CC2)c1 [3/135]
- IC50 (tubulin): 6000 nM
- IC50 (HCT116 cells; [1]): 321 nM

SMILES: Cc1cccc(-n2nc(C)cc2C(=O)N2CCN(c3ccc(C)c(C)c3)CC2)c1 [3/30]
- IC50 (tubulin): 2900 nM
- IC50 (HCT116 cells; [1]): 729 nM

SMILES: COc1cc(OC)cc(N2CCN(C(=O)c3cc(C(Br)Br)nn3-c3ccccc3)CC2)c1 [Example E78, [4-(3,5-Dimethoxyphenyl)piperazin-1-yl](3-dibromomethyl-1-phenyl-1H-pyrazol-5-yl)methanone]
- IC50 (tubulin): 14000 nM
- IC50 (HCT116 cells; [1]): 318 nM

SMILES: Cc1cc(C(=O)N2CCN(c3ccnc4ccccc34)CC2)n(-c2ccccc2)n1 [Example E17, (5-Methyl-2-phenyl-2H-pyrazol-3-yl)(4-quinolin-4-ylpiperazin-1-yl)methanone]
- IC50 (tubulin): 1500 nM
- IC50 (HCT116 cells; [1]): 8.5 nM

SMILES: COc1cccc(-n2nc(C)cc2C(=O)N2CCN(c3cccc(C(F)(F)F)c3)CC2)c1 [3/133]
- IC50 (tubulin): 6200 nM
- IC50 (HCT116 cells; [1]): 214 nM

SMILES: COc1cc(OC)cc(N2CCN(C(=O)c3cc(C(F)(F)F)nn3-c3cccc(C#N)c3)CC2)c1 [Example E56, 3-{5-[4-(3,5-Dimethoxyphenyl)piperazine-1-carbonyl]-3-trifluoromethylpyrazol-1-yl}benzonitrile]
- IC50 (tubulin): 1100 nM
- IC50 (HCT116 cells; [1]): 145 nM

SMILES: Cc1cc(C(=O)N2CCN(c3cccc(C)c3C)CC2)n(-c2ccccc2F)n1 [3/141]
- IC50 (tubulin): 7000 nM
- IC50 (HCT116 cells; [1]): 66 nM

SMILES: NC(=O)c1cccc(N2CCN(C(=O)c3cccn3-c3ccccc3)CC2)c1 [Example E57, 3-[4-(1-Phenyl-1H-pyrrole-2-carbonyl)piperazin-1-yl]benzamide]
- IC50 (tubulin): 2000 nM
- IC50 (HCT116 cells; [1]): 89.8 nM

SMILES: Cc1cc(C(=O)N2CCN(c3ccccc3C(F)(F)F)CC2)n(-c2cccc(Cl)c2)n1 [3/128]
- IC50 (tubulin): 12000 nM
- IC50 (HCT116 cells; [1]): 901 nM

SMILES: COc1cccc(N2CCN(C(=O)c3cc(C)nn3-c3cccc(Cl)c3)CC2)c1 [3/25]
- IC50 (tubulin): 1800 nM
- IC50 (HCT116 cells; [1]): 40 nM

SMILES: CSc1ccccc1N1CCN(C(=O)c2cc(C)nn2-c2ccc(F)cc2)CC1 [3/58]
- IC50 (tubulin): 4500 nM
- IC50 (HCT116 cells; [1]): 3940 nM

SMILES: CSc1ccccc1N1CCN(C(=O)c2cc(C)nn2-c2cccc(Cl)c2)CC1 [3/26]
- IC50 (tubulin): 1500 nM
- IC50 (HCT116 cells; [1]): 90 nM

SMILES: COc1cc(OC)cc(N2CCN(C(=O)c3cc(C=O)nn3-c3ccccc3)CC2)c1 [Example E100, 5-[4-(3,5-Dimethoxyphenyl)piperazine-1-carbonyl]-1-phenyl-1H-pyrazole-3-carboxaldehyde]
- IC50 (tubulin): 500 nM
- IC50 (HCT116 cells; [1]): 4.1 nM
